Series [1] concerns Rattus norvegicus. Put plainly: Protection against light-induced retinal degeneration in Sprague-Dawley rat assessed as suppression of light-induced retinal function loss by measuring preservation of cone function at 50 mg/kg, ip dosed 16 to 24 hrs before 6 hrs light exposure and measured 7 days after light-exposure by electroretinography. Format: functional, organism-based.
Series [2] concerns Rattus norvegicus. Put plainly: Protection against light-induced retinal degeneration in Sprague-Dawley rat assessed as suppression of light-induced retinal function loss by measuring Rod-a and b-wave responses at 50 mg/kg, ip dosed 0.5 hrs before 6 hrs light exposure and measured 7 days after light-exposure by electroretinography. Format: functional, organism-based.
Series [3] has as its system Rattus norvegicus. Put plainly: Protection against light-induced retinal degeneration in Sprague-Dawley rat assessed as suppression of light-induced retinal structure loss at 50 mg/kg, ip dosed 0.5 hrs after 6 hrs light exposure and measured 7 days after light-exposure by electroretinography. In kind it is functional, organism-based.
For series [4], the system named is Rattus norvegicus. Nature of the series: Protection against light-induced retinal degeneration in Sprague-Dawley rat assessed as suppression of light-induced retinal function loss by measuring preservation of cone function at 50 mg/kg, ip dosed after 6 hrs light exposure and measured 7 days after light-exposure by electroretinography. In kind it is functional, organism-based.

The test system of series [5] is Mus musculus. Nature of the series: Inhibition of rhodopsin regeneration in completely light-adapted mouse BALB/c mouse assessed as rhodopsin recovery level by measuring effect on rhodopsin content at 5% dosed to eyes via eye drop before dark adaptation for 1 hr by spectrophotometry (reference value: 78.83%). In kind it is functional. The arrangement: scale not given: the % may be the effect or the level left.

Series [6] relates to Rattus norvegicus. Nature of the series: Protection against light-induced retinal degeneration in Sprague-Dawley rat assessed as suppression of light-induced retinal function loss by measuring Rod-a and b-wave responses at 50 mg/kg, ip dosed 0.5 hrs after 6 hrs light exposure and measured 7 days after light-exposure by electroretinography. Format: functional, organism-based.

Series [7] deals with T1, Retinoid isomerohydrolase (Rattus norvegicus) (UniProt O70276).
T1 sequence (whole entry): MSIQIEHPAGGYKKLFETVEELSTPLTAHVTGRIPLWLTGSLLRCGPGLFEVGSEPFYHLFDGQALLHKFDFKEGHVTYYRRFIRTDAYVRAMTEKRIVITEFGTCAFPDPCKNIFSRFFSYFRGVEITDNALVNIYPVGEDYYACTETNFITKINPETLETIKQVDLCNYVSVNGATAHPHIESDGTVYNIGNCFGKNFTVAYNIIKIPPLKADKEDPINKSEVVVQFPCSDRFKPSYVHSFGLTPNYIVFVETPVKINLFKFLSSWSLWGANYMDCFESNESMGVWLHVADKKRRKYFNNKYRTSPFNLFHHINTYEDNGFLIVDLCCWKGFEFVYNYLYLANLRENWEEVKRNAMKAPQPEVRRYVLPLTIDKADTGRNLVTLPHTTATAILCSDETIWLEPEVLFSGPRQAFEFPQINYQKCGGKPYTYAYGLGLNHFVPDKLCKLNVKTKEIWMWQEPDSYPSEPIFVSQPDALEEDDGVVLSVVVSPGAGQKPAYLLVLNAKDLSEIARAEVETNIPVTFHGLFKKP
Nature of the series: Inhibition of RPE65 in rat RPE microsomes assessed as reduction in isomero-hydrolase activity by measuring 11-cis-retinol generation using all-trans-[3H]-retinol by HPLC analysis.

In series [8] the test system is Rattus norvegicus. Nature of the series: Protection against light-induced retinal degeneration in Sprague-Dawley rat assessed as suppression of light-induced retinal structure loss at 50 mg/kg, ip dosed 0.5 hrs before 6 hrs light exposure and measured 7 days after light-exposure by electroretinography. In kind it is functional, organism-based.
Series [9] has as its system Rattus norvegicus. Put plainly: Protection against light-induced retinal degeneration in Sprague-Dawley rat assessed as suppression of light-induced retinal function loss by measuring preservation of cone function at 50 mg/kg, ip dosed 0.5 to 12 hrs before 6 hrs light exposure and measured 7 days after light-exposure by electroretinography. In kind it is functional, organism-based.

The subject of series [10] is Rattus norvegicus. Put plainly: Protection against light-induced retinal degeneration in Sprague-Dawley rat assessed as photoreceptor levels in central and superior retina at 50 mg/kg, ip dosed 0.5 hrs before 6 hrs light exposure relative to control. Format: functional.
The test system of series [11] is Rattus norvegicus. Put plainly: Inhibition of rhodopsin regeneration in overnight dark-adaptated Sprague-Dawley rat assessed as effect on rhodopsin recovery by measuring rhodopsin content at 50 mg/kg, ip followed by exposure to room light for 2 hrs and measured 2.5 hrs after photo-bleach by spectrophotometry. Format: functional, organism-based.
In the next series the test system is Baboon. Put plainly: Inhibition of rhodopsin regeneration in anesthetized baboon assessed as rhodopsin regeneration by measuring rhodopsin content in eye at 10 mg/ml dosed as two drops for every 15 minutes for 1.75 hrs by spectrophotometry (reference value: 100%). In kind it is functional, Papio. Set-up: scale not given: the % may be the effect or the level left.

Series [12] deals with Mus musculus. Put plainly: Protection against light-induced retinal degeneration in BALB/c mouse assessed as suppression of light-induced retinal rod function loss at 10% topical application dosed 0.5 hrs before 6 hrs light exposure and measured 5 days after light-exposure by electroretinography. In kind it is functional, organism-based.
The species named for series [13] is Mus musculus. Put plainly: Inhibition of retinal RDH activity in mouse retinal microsomes assessed as effect on NADPH-dependent reduction of all-trans-retinal. To be noted: Retina.
The test system of series [14] is Mus musculus. Nature of the series: Inhibition of rhodopsin regeneration in completely light-adapted mouse BALB/c mouse assessed as effect on rhodopsin content at 10% dosed to eyes via eye drop for 2 times at 3 and 0 hrs before dark adaptation for 1 hr by spectrophotometry. Format: functional, organism-based.
Series [15] can be described thus: Drug level in […] in anesthetized baboon assessed per mg wet weight at 10 mg/ml dosed as two drops for every 15 minutes for 1.75 hrs by mass spectrometry. Format: ADME, organism-based, Papio. The conditions noted are these: in vivo, topical_or_ocular.
The test system of series [16] is Rattus norvegicus. Nature of the series: Protection against light-induced retinal degeneration in Sprague-Dawley rat assessed as suppression of light-induced retinal structure loss at 50 mg/kg, ip dosed 16 to 24 hrs before 6 hrs light exposure and measured 7 days after light-exposure by electroretinography. Format: functional, organism-based.
Series [17] in a line: Drug level in posterior eye cup of completely light-adapted mouse BALB/c mouse at 10% dosed to eyes via eye drop for 3 times at 6, 3 and 0 hrs before dark adaptation for 1 hr by mass spectrometry. Format: ADME, organism-based. The conditions noted are these: in vivo, topical_or_ocular.
Series [18] relates to Rattus norvegicus. Put plainly: Effect on cone function in Sprague-Dawley rat at 50 mg/kg, ip under steady rod-suppressing background illumination 60 mins post compound dosing by single- and flicker-flash ERG recordings based assay. In kind it is functional, organism-based.
The subject of series [19] is Mus musculus. Nature of the series: Inhibition of rhodopsin regeneration in completely light-adapted mouse BALB/c mouse assessed as effect on rhodopsin content at 10% dosed to eyes via eye drop followed by mouse moving to dark for 1 hr by spectrophotometry. Format: functional, organism-based.
The subject of series [20] is Mus musculus. Nature of the series: Inhibition of rhodopsin regeneration in completely light-adapted mouse BALB/c mouse assessed as effect on rhodopsin content at 10% dosed to eyes via eye drop for 3 times at 6, 3 and 0 hrs before dark adaptation for 1 hr by spectrophotometry. In kind it is functional, organism-based.
Series [21] deals with T1, Retinoid isomerohydrolase (Rattus norvegicus). Nature of the series: Inhibition of RPE65 in rat RPE microsomes assessed as reduction in isomero-hydrolase activity by measuring 11-cis-retinol generation at 1 mM using all-trans-[3H]-retinol by HPLC analysis.
Series [22] has as its system Rattus norvegicus. Nature of the series: Protection against light-induced retinal degeneration in Sprague-Dawley rat assessed as suppression of light-induced retinal structure loss at 50 mg/kg, ip dosed up to 12 hrs before 6 hrs light exposure and measured 7 days after light-exposure by electroretinography. In kind it is functional, organism-based.
Series [23] has as its system Rattus norvegicus. Nature of the series: Protection against light-induced retinal degeneration in Sprague-Dawley rat assessed as suppression of light-induced retinal function loss by measuring Rod-a and b-wave responses at 50 mg/kg, ip dosed up to 12 hrs before 6 hrs light exposure and measured 7 days after light-exposure by electroretinography. In kind it is functional, organism-based.

The test system of series [24] is Rattus norvegicus. Nature of the series: Inhibition of rhodopsin regeneration in overnight dark-adaptated Sprague-Dawley rat assessed as effect on rhodopsin recovery by measuring rhodopsin content at 50 mg/kg, ip followed by exposure to room light for 2 hrs and measured 45 mins after photo-bleach by spectrophotometry (reference value: 100%). The arrangement: scale not given: the % may be the effect or the level left. Format: functional.

The test system of series [25] is Rattus norvegicus. Put plainly: Inhibition of rhodopsin regeneration in overnight dark-adaptated Sprague-Dawley rat assessed as effect on rhodopsin recovery by measuring rhodopsin content at 50 mg/kg, ip followed by exposure to room light for 2 hrs and measured 3 hrs after photo-bleach by spectrophotometry (reference value: 100%). In kind it is functional. The arrangement: scale not given: the % may be the effect or the level left.

The target in series [26] is T2, Lecithin retinol acyltransferase (Rattus norvegicus) (UniProt Q9JI61).
T2 sequence (whole entry): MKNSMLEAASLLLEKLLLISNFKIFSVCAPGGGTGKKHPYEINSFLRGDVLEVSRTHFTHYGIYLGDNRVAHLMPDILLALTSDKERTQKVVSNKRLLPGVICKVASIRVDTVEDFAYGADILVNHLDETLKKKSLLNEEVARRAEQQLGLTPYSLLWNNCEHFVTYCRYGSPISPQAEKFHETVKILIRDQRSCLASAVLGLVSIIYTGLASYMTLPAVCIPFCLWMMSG
Put plainly: Inhibition of LRAT in rat RPE microsomes assessed as reduction in retinyl-ester at 1 mM using all-trans-[3H]-retinol by HPLC analysis.

In series [27] the test system is Rattus norvegicus. Put plainly: Protection against light-induced retinal degeneration in Sprague-Dawley rat assessed as suppression of light-induced retinal function loss by measuring Rod-a and b-wave responses at 50 mg/kg, ip dosed 16 to 24 hrs before 6 hrs light exposure and measured 7 days after light-exposure by electroretinography. Format: functional, organism-based.

The subject of series [28] is Rattus norvegicus. Put plainly: Protection against light-induced retinal degeneration in overnight dark-adaptated Sprague-Dawley rat assessed as protection of retinal rod function by measuring effect on A-waves at 50 mg/kg, ip dosed 30 mins prior to exposure to 4 log cd.s/m2 test flash by electroretinography relative to control. In kind it is functional.

By inhibition is commonly meant the change of the read-out against control, counted positive when it falls.

The source made the active and inactive calls. The calls are words filed in the database; no cut-off is given here.

Consider `CC(C)(C)/[N+]([O-])=C/c1ccccc1S(=O)(=O)[O-].[Na+]`, for which the result with Rattus norvegicus [1], in the series with Rattus norvegicus [2], with Rattus norvegicus [3], with Rattus norvegicus [4], in the series with Rattus norvegicus [6] and in the series on Rattus norvegicus [8] was inactive. In the series with Rattus norvegicus [9], the outcome was inactive. Also, in the series on Mus musculus [5], the Activity was 84.64%. Also, in series [7], the inhibition entry was “inactive”.

Take `CC(C)(C)/[N+]([O-])=C/c1ccc(F)cc1`: the outcome in the series with Rattus norvegicus [10] was Active. Also, the inhibition result in the series on Rattus norvegicus [11] was “Active”.

`CC(C)(C)/[N+]([O-])=C/c1ccccc1`: the Activity is recorded as 26 - 36% in the series with Baboon, 90% in the series with Rattus norvegicus [10], 0% with Rattus norvegicus [24] and 0% in the series on Rattus norvegicus [25]. Also, the outcome with Rattus norvegicus [1], in the series on Rattus norvegicus [3], in the series with Rattus norvegicus [4], in the series on Rattus norvegicus [6], in the series on Rattus norvegicus [16] and with Rattus norvegicus [18] was inactive. The outcome with Rattus norvegicus [27] was inactive. In addition, the outcome in the series with Rattus norvegicus [2], with Mus musculus [12], in the series on Rattus norvegicus [8], in the series on Rattus norvegicus [22], in the series on Rattus norvegicus [23] and in the series on Rattus norvegicus [9] was Active. Further, the inhibition result (in the series filed under Mus musculus [13]; in series [26]) was “inactive” each time. In addition, the inhibition result in the series on Mus musculus [14], with Mus musculus [19], in the series with Mus musculus [20] and in the series on Rattus norvegicus [11] was “Active” in each case. For the same compound, the values for the Drug uptake in series [15] and in series [17] were 23.5 to 24.2 ng and “Active”, respectively. Besides, the inhibition result was “Dose-dependent effect” in series [7] and 100% in series [21].

Take `Cc1ccc(/C=[N+](\[O-])C(C)(C)C)cc1`: the result with Rattus norvegicus [10] was Active. In the series with Rattus norvegicus [11], the inhibition entry was “Active”.

With `CC(C)(C)/[N+]([O-])=C/c1ccc(C(F)(F)F)cc1`, in the series with Rattus norvegicus [10], the outcome was Active. Moreover, the inhibition result in the series with Rattus norvegicus [11] is “Active”. Besides, the Activity with Rattus norvegicus [28] is 804%.

The values are drawn from ChEMBL document CHEMBL4420061, “Compositions and methods of inhibiting retinal degeneration” (2013).
